Experimental data: patent US12594343B2, “Treatment of cancer” (INNATE PHARMA, priority 2020, dated 2026)

T1: wild-type human Nectin-4 protein (Homo sapiens, UniProt Q96NY8)
T1 construct: expressed in transfected cells
T1 sequence (Q96NY8 32-510): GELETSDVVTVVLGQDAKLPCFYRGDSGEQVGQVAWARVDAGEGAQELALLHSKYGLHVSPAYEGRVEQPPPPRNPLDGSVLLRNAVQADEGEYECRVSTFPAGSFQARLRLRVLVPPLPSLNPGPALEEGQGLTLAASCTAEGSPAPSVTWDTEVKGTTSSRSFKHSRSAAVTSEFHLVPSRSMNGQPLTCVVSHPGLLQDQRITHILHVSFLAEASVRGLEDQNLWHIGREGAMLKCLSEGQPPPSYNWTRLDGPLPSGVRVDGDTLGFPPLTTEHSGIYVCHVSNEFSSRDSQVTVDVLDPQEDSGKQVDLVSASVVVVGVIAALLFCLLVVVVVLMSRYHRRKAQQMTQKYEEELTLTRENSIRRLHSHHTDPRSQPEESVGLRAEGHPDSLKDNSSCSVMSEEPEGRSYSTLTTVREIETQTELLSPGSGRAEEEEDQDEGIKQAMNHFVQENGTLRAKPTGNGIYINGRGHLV

T2: modified Nectin-4 lacking the Ig-like V domain (the C1C2 construct) (Homo sapiens, UniProt Q96NY8)
T2 construct: having the Ig-like C2 type 1 and the Ig-like C2 type 2 domains and lacking the Ig-like V domain (the C1C2 construct); expressed in transfected cells
T2 sequence (Q96NY8 148-510): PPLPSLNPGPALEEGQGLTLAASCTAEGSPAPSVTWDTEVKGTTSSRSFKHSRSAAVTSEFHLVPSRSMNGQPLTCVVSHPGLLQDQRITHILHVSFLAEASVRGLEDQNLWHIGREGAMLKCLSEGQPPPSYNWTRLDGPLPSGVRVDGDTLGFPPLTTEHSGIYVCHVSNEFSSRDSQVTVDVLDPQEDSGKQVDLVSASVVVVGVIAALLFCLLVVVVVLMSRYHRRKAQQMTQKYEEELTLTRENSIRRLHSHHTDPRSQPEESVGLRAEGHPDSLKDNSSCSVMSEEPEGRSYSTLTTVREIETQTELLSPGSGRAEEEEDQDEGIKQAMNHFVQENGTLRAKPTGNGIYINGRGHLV


Key:
[1] = test system: advanced or metastatic urothelial tract tumors; settings: cited from earlier work
pancreatic cancer = settings: 349 patients; cited from earlier work
UC = settings: cited from earlier work
SUM185 cells = test: Fab-ZAP internalization assay (cell viability, CTG); type: cell-based, human; settings: SUM185 (higher Nectin-4)
Protocol: (§1) The ability of the anti-nectin-4 antibodies to induce nectin-4 internalization was assessed on SUM190 cell lines expressing lower levels of nectin-4 and in SUM185 cells expressing higher levels of Nectin-4. […] Internalization was indirectly determined by using the Fab-ZAP human Internalization Kit (Advanced Targeting Systems) to allow the anti-Nectin-4 antibodies to target and eliminate Nectin-4 expressing cells, with measurement of cell viability using the CTG substrate (CellTiter-Glo® Luminescent Cell Viability Assay (Promega). Fab-ZAP is a chemical conjugate of goat anti-human monovalent antibody and the ribosome-inactivating protein, saporin. The antibodies used are affinity-purified polyclonal antibodies against both the heavy and light chain of human IgG. This secondary conjugate is used to evaluate the potential of a primary antibody to internalize.
(§2) Briefly, a concentration range of the antibodies or the control items was incubated on top of the SUM190 or SUM185 cells. After the incubation, the non-bound antibodies were washed away and Fab-ZAP was added on top of the cells. The newly formed complexes (anti-nectin-4 antibody+Fab-ZAP) internalized into the cells where the Saporin was released and stopped the protein synthesis leading to cell death. The internalization capability of the antibody was indirectly determined by the cells viability: the more efficient was the cell killing; the better was the internalization capability of the antibody.

SUM190 cells = test: as above; type: cell-based, human; settings: SUM190 (lower Nectin-4)
Protocol: as §1, §2

[2] = target: T1, wild-type human Nectin-4 protein; test: Flow cytometry binding to CHO cells expressing wild-type Nectin-4
Protocol: (§3) The characterization of the binding of the antibodies on Nectin-4 domains was performed by flow cytometry using cells made to express the wild-type human Nectin-4 protein and cells made to express a modified Nectin-4 having the Ig-like C2 type 1 and the Ig-like C2 type 2 domains and lacking the Ig-like V domain (the C1C2 construct). The latter protein additionally bears a V5 tag for flow cytometry cell sorting, and cells were used as Nectin4-C1C2-V5 sorted cells.
(§4) Wild-type Nectin-4 (the CI.3C8 cell line), a C2 construct (containing the Ig-like C2 type 2 domain and lacking both the V and the C1 domains) and the C1C2 construct allow the determination of whether test antibodies bind to the V or different C domains. Briefly, nucleic acid sequences encoding different human Nectin-4 domains were amplified by PCR. The PCR products were inserted into an expression vector at appropriate restriction sites. A leader peptide, and for C1C2 and C2 an N-terminal V5 tag having the amino acid sequence […] (SEQ ID NO: 13), were added, and expression at the surface of cells was confirmed by flow cytometry. The amino acid sequences of the resulting different human Nectin-4 domain fragment-containing proteins are shown below (V5 tag underlined). The vectors were then transfected into the CHO cell line to obtain stable clones expressing the different Nectin-4 domain proteins at the cell surface.

[3] = target: T2, modified Nectin-4 lacking the Ig-like V domain (the C1C2 construct); type: binding; settings: flow cytometry, CHO cells
Protocol: as §3, §4

[4] = test system: modified Nectin-4 lacking the Ig-like V domain (the C1C2 construct); type: binding, human; settings: concluded from wild-type versus C1C2 binding
Protocol: as §3, §4

SUM190 tumor cells = test: ADC-induced tumor cell death, Cell Titer Glo viability at day 6; type: cell-based, human
Protocol: The resulting ADCs were tested for their ability to induce death of Nectin-4/Her2 expressing SUM190 and SUM185 tumor cells of Example 1. Briefly, cells were plated cells in 96 well plates (V=80 μl). N4 ADC1 and Her2 ADC1 or human IgG1-isotype control (IC)-linker-toxin or medium (conc. 5×) were tested in 1:2 serial dilution starting from (530 nM to 30 nM) and in a 1:5 serial dilution (7 nM to 7×10−2 nM) for the N4 ADC1 and isotype control. N4 ADC2 and isotype control were tested in 1:10 serial dilution starting from (530 nM to 5.3 10-2). The ADCs' ability to cause cell death was determined by assessing confluence using Incucyte S3-2 apparatus; viability at day 6 after treatment was determined using the Cell Titer Glo™ (CTG) assay with an Enspire2 apparatus. IC50 values for each ADC was determined using Luminescent Cell Viability at day 6 data with GraphPad Prism8. Experiments were repeated twice.
The anti-Nectin-4 camptothecin-analogue ADCs used were the N4 ADC1 as shown in Example 2. The anti-Her2 ADCs were also those used in Example 2 (Her2 ADC1). The ADC's ability to cause cell death was determined by assessing confluence and determining viability of SUM190 cells at day 6 as described in Example 2.

Molecule	ability to induce internalization (SUM185 cells)	ability to induce internalization (SUM190 cells)	binding to whole Nectin-4 protein [2]	binding to C1C2 construct lacking the V domain [3]	Nectin-4 domain bound [4]	further results
CC[C@@]1(O)C(=O)OCc2c1cc1n(c2=O)Cc2cc3c([N+](=O)[O-])cccc3nc2-1 [RFS2000]	–	–	–	–	–	activity in patients failing prior chemotherapy [1]: did not exert significant activity
CC[C@@]1(O)C(=O)OCc2c1cc1n(c2=O)Cc2c-1nc1cc(F)c(C)c3c1c2[C@@H](N)CC3 [exatecan]	–	–	–	–	–	efficacy of exatecan in addition to gemcitabine versus gemcitabine alone (pancreatic cancer): not superior in efficacy to gemcitabine alone
enfortumab vedotin	–	–	–	–	–	CR (complete response rate) (UC; UC patients): 12%; ORR (objective response rate) (UC; UC patients): 44%; discontinuation due to progressive disease as assessed by RECIST (UC; UC patients): 48%; discontinuation due to progressive disease by clinical symptoms (UC; UC patients): 5%; patients that discontinued experienced adverse events, notably neuropathy (UC): 18%
enfortumab: anti-Nectin-4 antibody, VH and VL of SEQ ID NOS: 3 and 4 as human IgG1 isotype	highly potent in the ability to induce of internalization	highly potent in the ability to induce of internalization	bound to the whole Nectin-4 protein	lost binding	within the V domain	–
N4 ADC2: Anti-Nectin-4 antibody conjugated to a second camptothecin (SN-38) containing linker (conjugate) VH: QVQLKQSGPGLVQPSQSLSITCTVSGFSLTNYGVHWVRQSPGKGLEWLGVIWSGGSTDYNAAFISRLSISKDTSKSQVFFKMNSLQADDTAIYYCARELIHAMDNWGQGTSVTVSS VL: DIQMTQSPASLSVSVGETVTITCRASENIYSNLAWYQQKQGNSPQLLVFAATNLADGVPSRFSGSGSGTQYSLKINSLQSEDFGTYYCQHFWGTPTFGGGTKLEIK	–	–	–	–	–	potency in causing tumor cell death (in words) (SUM190 tumor cells): good potency
N41: anti-Nectin-4 antibody, VH and VL of SEQ ID NOS: 9 and 10 as human IgG1 isotype (antibody, listed as Mus musculus, V domains shown, human IgG1 constant regions) VH: QVQLKQSGPGLVQPSQSLSITCTVSGFSLTNYGVHWVRQSPGKGLEWLGVIWSGGSTDYNAAFISRLSISKDTSKSQVFFKMNSLQADDTAIYYCARELIHAMDNWGQGTSVTVSS VL: DIQMTQSPASLSVSVGETVTITCRASENIYSNLAWYQQKQGNSPQLLVFAATNLADGVPSRFSGSGSGTQYSLKINSLQSEDFGTYYCQHFWGTPTFGGGTKLEIK	highly potent in the ability to induce of internalization	highly potent in the ability to induce of internalization	bound to the whole Nectin-4 protein	lost binding	within the V domain	–
